Data from ChEMBL document CHEMBL6078717, “An overview of GPX4-targeting TPDs for cancer therapy” (Bioorg Med Chem, 2025).

Key:
[1] = PROTAC activity at GPX4/E3 ligase in human HT-1080 cells assessed as degradation of GPX4 protein incubated for 24 hrs by Western blotting analysis; type: cell-based; conditions: HT-1080, 24 h
Calu-1 = assay: Antiproliferative activity against human Calu-1 cells assessed as inhibition of cell growth incubated for 24 hrs by MTT assay; type: functional, cell-based; conditions: Calu-1, 24 h
MDA-MB-231 = assay: Antiproliferative activity against human MDA-MB-231 cells assessed as reduction in cell viability after 48 hrs by SRB assay; type: functional, cell-based; conditions: MDA-MB-231, 48 h
786-0 = assay: Antiproliferative activity against human 786-0 cells assessed as cell growth inhibition measured for 48 hrs by SRB assay; type: functional, cell-based; conditions: 786-0, 48 h
DU-145 = assay: Antiproliferative activity against human DU-145 cells assessed as cell growth inhibition by SRB assay; type: functional, cell-based
[2] = Antiproliferative activity against HEK293T cells assessed as reduction in cell growth; type: toxicity, cell-based, HEK-293T; conditions: human

Structure (SMILES)	DC50 [1] [nM]	IC50 (Calu-1) [nM]	IC50 (MDA-MB-231) [nM]	IC50 (786-0) [nM]	IC50 (DU-145) [nM]	IC50 [2] [nM]
O=C1CCC(N2C(=O)c3cccc(NCCCCN(C(=O)CCl)C(C(=O)NCc4ccccc4)c4cccs4)c3C2=O)C(=O)N1 (centres undefined)	130	860	–	–	–	–
O=C1CCC(N2C(=O)c3cccc(NCCOCCOCCOCCN(C(=O)CCl)C(C(=O)NCc4ccccc4)c4cccs4)c3C2=O)C(=O)N1 (centres undefined)	210	2930	–	–	–	–
Cc1onc(C(=O)N2CCN(C(c3ccc(Cl)cc3)c3ccc(OCCOCCOCC(=O)NCC45CC6CC(CC(C6)C4)C5)cc3)CC2)c1[N+](=O)[O-] (centres undefined)	57	–	31	125	92	–
COC(=O)c1ccc([C@H]2c3[nH]c4ccccc4c3C[C@H](C(=O)OC)N2C(=O)CCl)cc1	–	–	–	–	–	310
